Source: ChEMBL document CHEMBL5518247 (J Med Chem, 2024)
pIC50: −log10 of the molar value.

Experiments:
[1] = Inhibition of recombinant PKCgamma (unknown origin) expressed in baculovirus infected in Sf9 cells using biotin-Ahx-peptide as substrate; parameters: species or system Homo sapiens
[2] = Oral bioavailability in ICR mouse at 20 mg/kg measured up to 48 hrs by LC-MS/MS analysis; format: ADME, organism-based; details: in vivo
[3] = Oral absorption in C57BL/6J mouse at 20 mg/kg measured up to 48 hrs by LC-MS/MS analysis; format: ADME, organism-based; details: in vivo

Compound | pIC50 [1] | bioavailability [2] [%] | Fa at 48 h [3] [%]
Cc1n[nH]c2ccc(-c3cncc(OC[C@H](N)Cc4c[nH]c5ccccc45)c3)cc12 | 5.85 | – | –
C=CC(=O)Nc1ccc2[nH]c(=O)n(C3CCN(Cc4ccc(-c5nc6cc[nH]c(=O)c6cc5-c5ccccc5)cc4)CC3)c2c1 [Borussertib] | – | < 5 | 39.6
